The EC50 is the midpoint of the concentration-response curve. In general, inhibition refers to the relative decrease from the control value, in per cent. By IC50 is commonly meant the concentration needed to halve the response being measured. As a reminder, the fraction unbound is free concentration divided by total concentration. A word on the efflux ratio: it is the permeability from basolateral to apical divided by that in the opposite direction, in the common usage. Usually solubility stands for the concentration that dissolves in the medium under given conditions. For orientation: half-life means how long it takes for the measured level to halve. By Papp is commonly meant the rate of passage across a membrane or cell layer, normalised by area and donor concentration. Usually pIC50 stands for the IC50 on a negative log10 scale, so that one unit is a factor of ten.

The subject of series [1] is Plasmodium berghei. Kind of series: Antimalarial activity against Plasmodium berghei sporozoites expressing Luciferase infected in human HepG2 cells assessed as reduction in parasite growth incubated for 48 hrs by ONE-Glo luciferase assay. The format is functional, organism-based.
Series [2] in a line: Stability in CD-1 mouse liver microsomes assessed as remaining compound in absence of NADPH incubated for 60 mins by LC-MS/MS analysis. The format is ADME, Microsome. Particulars: read-out: Stability. (Microsomes from liver hold many membrane-bound enzymes, among them those of drug oxidation.)
For series [3], the species on record is Homo sapiens. Kind of series: Inhibition of human PKG using FAM-IP3R peptide as fluorescent substrate at 10 uM preincubated for 15 mins followed by substrate addition measured after 1 hr by fluorescence polarization based IMAP assay relative to control. Particulars: time 75.0 min.
Series [4] deals with Cytochrome P450 2D6 (Homo sapiens, UniProt P10635). The series is described as follows: Inhibition of human CYP2D6 expressed in baculovirus infected insect cells using AMMC as substrate incubated for 40 mins in presence of NADPH by UPLC-MS analysis. The format is ADME.
Series [5] is described as follows: Protein binding in C57BL/6 mouse plasma assessed as unbound fraction incubated for 22 hrs by LC-MS/MS analysis. The format is ADME, cell-free.
Series [6] addresses Cytochrome P450 2C9 (Homo sapiens, UniProt P11712). The series is described as follows: Inhibition of human CYP2C9 expressed in baculovirus infected insect cells using MFC as substrate incubated for 30 mins in presence of NADPH by UPLC-MS analysis. The series is classed as ADME.
Series [7] is described as follows: Efflux ratio of apparent permeability from basolateral to apical side over apical to basolateral side in human Caco-2 cells incubated for 120 mins by LC-MS/MS analysis. The series is classed as ADME, cell-based.
Series [8] is described as follows: Intrinsic clearance in CD-1 mouse liver microsomes in presence of NADPH incubated for 60 mins by LC-MS/MS analysis. The series is classed as ADME, Microsome. The following applies: read-out: CLH.
Series [9] can be described thus: Stability in human liver microsomes assessed as remaining compound in absence of NADPH incubated for 60 mins by LC-MS/MS analysis. The series is classed as ADME, Microsome. The following applies: read-out: Stability.
For series [10], the system named is Plasmodium falciparum. Kind of series: Antimalarial activity against drug-sensitive Plasmodium falciparum 3D7 infected in human erythrocytes assessed as reduction in parasitemia incubated for 72 hrs by SYBR green I and Mitotracker deep red dye based flow cytometric analysis. The series is classed as functional, organism-based. Background: In flow cytometry, cells or beads pass a laser one at a time.

Series [11] can be described thus: Aqueous solubility of compound in PBS at pH 7.4 incubated for 90 mins by UV spectrophotometric analysis. The series is classed as physicochemical.
A short description of series [12]: Intrinsic clearance in human liver microsomes in presence of NADPH incubated for 60 mins by LC-MS/MS analysis. The series is classed as ADME, Microsome. The following applies: read-out: CLH.
Series [13] is described as follows: Half life in human liver microsomes in presence of NADPH incubated for 60 mins by LC-MS/MS analysis. The series is classed as ADME, Microsome.
The nature of series [14]: Apparent permeability in human Caco-2 cells incubated for 120 mins by LC-MS/MS analysis. The series is classed as ADME, cell-based. (In general: Caco-2 cells form a polarised layer with tight junctions and transporters.)
The nature of series [15]: Protein binding in CD-1 mouse liver microsomes assessed as unbound fraction incubated for 17 hrs by LC-MS analysis. The format is ADME, Microsome.
Series [16] has as its target Voltage-gated inwardly rectifying potassium channel KCNH2 (Homo sapiens, UniProt Q12809). The series is described as follows: Inhibition of hERG expressed in HEK293 cells incubated for 30 mins by FluxOR dye based fluorescence analysis. The format is toxicity, cell-based.
Series [17] is described as follows: Half life in CD-1 mouse liver microsomes in presence of NADPH incubated for 60 mins by LC-MS/MS analysis. The format is ADME, Microsome.
In series [18] the test system is Plasmodium falciparum. Kind of series: Antimalarial activity against Plasmodium falciparum expressing PKG T618Q mutant infected in human erythrocytes assessed as reduction in parasitemia incubated for 72 hrs by SYBR green I and Mitotracker deep red dye based flow cytometric analysis. The series is classed as functional, organism-based.
Series [19] is described as follows: Inhibition of recombinant Plasmodium falciparum PKG using FAM-PKA peptide as fluorescent substrate preincubated for 15 mins followed by substrate addition measured after 1 hr by fluorescence polarization based IMAP assay.
The target in series [20] is Cytochrome P450 3A4 (Homo sapiens, UniProt P08684). Kind of series: Inhibition of human CYP3A4 expressed in baculovirus infected insect cells using midazolam as substrate incubated for 30 mins in presence of NADPH by UPLC-MS analysis. The series is classed as ADME.
[21] abbreviates: Plasmodium berghei, HepG2, 48 h.
Where [22] appears, read: Plasmodium falciparum, 3D7, 72 h.

The structures appear in SMILES notation.

Chain of Cytochrome P450 2D6 (P10635 whole entry): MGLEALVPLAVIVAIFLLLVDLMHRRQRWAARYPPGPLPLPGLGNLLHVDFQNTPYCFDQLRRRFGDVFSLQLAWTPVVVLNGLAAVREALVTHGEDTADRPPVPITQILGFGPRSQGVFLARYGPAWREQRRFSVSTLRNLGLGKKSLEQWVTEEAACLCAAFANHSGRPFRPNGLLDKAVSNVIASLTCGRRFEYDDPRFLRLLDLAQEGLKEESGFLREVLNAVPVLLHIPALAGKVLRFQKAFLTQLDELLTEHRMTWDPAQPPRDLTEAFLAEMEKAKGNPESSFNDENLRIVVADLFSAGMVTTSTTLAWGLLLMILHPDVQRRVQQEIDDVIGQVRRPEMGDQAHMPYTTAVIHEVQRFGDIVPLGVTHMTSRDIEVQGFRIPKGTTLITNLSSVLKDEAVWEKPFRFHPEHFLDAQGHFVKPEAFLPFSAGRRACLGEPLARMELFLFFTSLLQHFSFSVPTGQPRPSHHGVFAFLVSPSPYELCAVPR
Chain of Voltage-gated inwardly rectifying potassium channel KCNH2 (Q12809 whole entry): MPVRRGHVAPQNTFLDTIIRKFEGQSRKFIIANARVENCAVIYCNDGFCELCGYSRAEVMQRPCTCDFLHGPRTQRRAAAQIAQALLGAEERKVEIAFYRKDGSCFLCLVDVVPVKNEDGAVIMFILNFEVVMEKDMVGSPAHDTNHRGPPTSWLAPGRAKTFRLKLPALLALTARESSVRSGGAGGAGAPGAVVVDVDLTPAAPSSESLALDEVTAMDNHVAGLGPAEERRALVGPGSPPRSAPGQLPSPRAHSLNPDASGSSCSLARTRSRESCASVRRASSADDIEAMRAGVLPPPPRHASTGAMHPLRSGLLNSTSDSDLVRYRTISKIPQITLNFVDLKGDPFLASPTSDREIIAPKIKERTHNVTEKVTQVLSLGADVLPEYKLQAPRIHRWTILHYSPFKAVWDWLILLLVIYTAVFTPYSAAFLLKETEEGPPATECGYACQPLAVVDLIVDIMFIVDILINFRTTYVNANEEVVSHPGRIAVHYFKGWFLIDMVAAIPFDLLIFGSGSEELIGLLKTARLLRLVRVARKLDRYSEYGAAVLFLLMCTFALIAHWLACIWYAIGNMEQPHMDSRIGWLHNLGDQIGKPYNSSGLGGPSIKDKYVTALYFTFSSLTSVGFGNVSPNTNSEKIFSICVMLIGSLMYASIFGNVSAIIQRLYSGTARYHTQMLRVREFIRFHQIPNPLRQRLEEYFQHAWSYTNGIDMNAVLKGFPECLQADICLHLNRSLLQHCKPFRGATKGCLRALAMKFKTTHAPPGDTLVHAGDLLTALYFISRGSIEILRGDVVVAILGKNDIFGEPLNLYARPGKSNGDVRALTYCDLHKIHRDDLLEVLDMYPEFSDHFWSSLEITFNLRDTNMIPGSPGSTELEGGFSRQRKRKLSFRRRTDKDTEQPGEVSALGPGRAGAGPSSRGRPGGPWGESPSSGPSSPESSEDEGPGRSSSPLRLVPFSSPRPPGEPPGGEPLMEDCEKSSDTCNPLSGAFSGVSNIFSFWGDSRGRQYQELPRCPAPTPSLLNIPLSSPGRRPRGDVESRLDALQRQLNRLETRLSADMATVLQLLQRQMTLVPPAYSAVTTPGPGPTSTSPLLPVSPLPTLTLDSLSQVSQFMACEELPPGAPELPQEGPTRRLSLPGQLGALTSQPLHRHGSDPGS
Chain of Cytochrome P450 2C9 (P11712 whole entry): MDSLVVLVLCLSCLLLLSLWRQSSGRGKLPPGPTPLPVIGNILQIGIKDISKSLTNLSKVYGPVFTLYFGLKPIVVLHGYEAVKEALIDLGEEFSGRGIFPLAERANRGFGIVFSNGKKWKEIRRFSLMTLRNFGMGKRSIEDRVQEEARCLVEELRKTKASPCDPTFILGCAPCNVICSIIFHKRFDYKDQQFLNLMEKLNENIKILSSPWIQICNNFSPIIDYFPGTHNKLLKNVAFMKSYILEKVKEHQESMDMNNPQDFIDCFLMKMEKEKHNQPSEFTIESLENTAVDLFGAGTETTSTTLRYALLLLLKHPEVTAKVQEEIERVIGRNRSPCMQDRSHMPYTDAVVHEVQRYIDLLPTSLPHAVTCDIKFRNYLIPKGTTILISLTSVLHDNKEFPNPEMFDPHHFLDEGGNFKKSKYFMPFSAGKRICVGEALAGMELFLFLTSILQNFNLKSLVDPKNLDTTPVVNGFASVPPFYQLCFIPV
Chain of Cytochrome P450 3A4 (P08684 whole entry): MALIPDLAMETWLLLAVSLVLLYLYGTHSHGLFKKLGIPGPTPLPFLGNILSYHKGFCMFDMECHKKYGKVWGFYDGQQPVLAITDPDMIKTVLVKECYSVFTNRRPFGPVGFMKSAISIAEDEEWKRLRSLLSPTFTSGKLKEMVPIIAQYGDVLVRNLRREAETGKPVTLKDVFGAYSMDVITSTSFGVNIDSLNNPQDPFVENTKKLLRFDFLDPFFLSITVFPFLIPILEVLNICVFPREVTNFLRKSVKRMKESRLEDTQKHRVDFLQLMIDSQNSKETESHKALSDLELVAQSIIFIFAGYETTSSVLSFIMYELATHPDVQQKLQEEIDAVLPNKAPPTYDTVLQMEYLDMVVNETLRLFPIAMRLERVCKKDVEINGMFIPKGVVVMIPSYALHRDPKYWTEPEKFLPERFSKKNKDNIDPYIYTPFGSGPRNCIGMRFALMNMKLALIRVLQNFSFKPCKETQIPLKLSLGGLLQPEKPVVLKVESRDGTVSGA

`CC1CN(C)CC[C@H]1c1cc(-c2ccncc2)c(-c2ccc(F)cc2)[nH]1.Cl.Cl` (single isomer, unassigned): the EC50 turned out to be 350 nM in [1], 170 nM in [10] and 900 nM in [18]. Moreover, the remaining at 1 h in series [2] was 104%; in series [9] it was 101%. The inhibition in series [3] is 0.4%. Moreover, the IC50 in series [4] was 5670 nM; in series [6] it was over 10000 nM; in series [16], over 10000 nM; in [19], 14 nM; in [20], over 10000 nM. Besides, the fraction unbound at 22 h in series [5] was found to be 0.115. Also, in [7], the efflux ratio at 2 h was 1.27. The microsomal CLint in series [8] turned out to be 49.2 µL/min/mg; in series [12], 24.1 µL/min/mg. This molecule also gave a solubility at 1.5 h in series [11] of 190 µM. Also, the values for the half-life in [13] and in series [17] were 57.5 min and 28.2 min, respectively. In [14], the Papp at 2 h was 17 ×10⁻⁶ cm/s. The fraction unbound at 17 h in series [15] worked out at 0.587. Besides, the pIC50 in [19] stood at 7.85.

Turning to `C[C@H]1CN(C)CC[C@@H]1c1cc(-c2ccncc2)c(-c2ccc(F)cc2)[nH]1.Cl.Cl`, the EC50 in series [1] (setting [21]) was 170 nM; in series [10] (setting [22]) it was 80 nM; in series [18] (Plasmodium falciparum, 72 h), 780 nM. Also, the remaining at 1 h in [2] came out at 99%; in series [9] it was 100%. Further, the inhibition in series [3] is 30%. Also, the IC50 is 6150 nM in [4]; over 10000 nM in series [6]; over 10000 nM in [16]; 14 nM in series [19]; 4780 nM in [20]. For the same molecule, the fraction unbound at 22 h in series [5] was found to be 0.122. In addition, the efflux ratio at 2 h in [7] amounted to 1.52. In addition, the microsomal CLint in series [8] and in [12] was under 23 µL/min/mg each time. This molecule also came in with a solubility at 1.5 h in series [11] of 187 µM. Moreover, the half-life in [13] and in [17] was over 60 min in each case. For the same molecule, the Papp at 2 h in series [14] was 22.6 ×10⁻⁶ cm/s. Besides, the fraction unbound at 17 h in series [15] came out at 0.63. For the same molecule, the pIC50 in series [19] is given as 7.87.

`CN1CCC(c2cc(-c3ccncc3CO)c(-c3ccc(F)cc3)[nH]2)CC1.Cl.Cl`: the EC50 amounted to 2400 nM in [1] (setting [21]); 481 nM in [10] (setting [22]); 6230 nM in [18] (Plasmodium falciparum, 72 h). For the same molecule, the inhibition in series [3] was 1%. Besides, in series [19], the IC50 worked out at 1520 nM. In [19], the pIC50 stood at 5.82.

As for `CN1CCC(c2cc(-c3ccnc(N)c3)c(-c3ccc(F)cc3)[nH]2)CC1.Cl.Cl`, the EC50 in series [1] (setting [21]) stood at 590 nM; in [10] (setting [22]) it was 50 nM; in series [18] (Plasmodium falciparum, 72 h), 600 nM. For the same molecule, in series [3], the inhibition is -4%. Also, the IC50 in series [19] was found to be 352 nM. Besides, the pIC50 in series [19] was determined as 6.45.

Take `CN1CCC(c2cc(-c3ccncc3C#N)c(-c3ccc(F)cc3)[nH]2)CC1.Cl.Cl`: the EC50 in series [1] (setting [21]) worked out at 340 nM; in [10] (setting [22]) it was 360 nM; in [18] (Plasmodium falciparum, 72 h), 4400 nM. Besides, in series [3], the inhibition stood at 2%. For the same molecule, the IC50 in series [19] came out at 35 nM. For the same molecule, the pIC50 in [19] came to 7.46.

On to `CCOC(=O)c1c(C2CCN(C)CC2)[nH]c(-c2ccc(F)cc2)c1-c1ccncc1.Cl.Cl`, for which the EC50 in series [1] (setting [21]) amounted to 2600 nM; in series [10] (setting [22]) it was 2470 nM; in series [18] (Plasmodium falciparum, 72 h), 1630 nM. Besides, the inhibition in series [3] was 0%. In addition, the IC50 in series [19] was 1030 nM. In addition, the pIC50 in series [19] is on record as 5.99.

For the origin of these results see ChEMBL document CHEMBL5528065, “Structure-Activity Relationship of a Pyrrole Based Series of PfPKG Inhibitors as Anti-Malarials” (J Med Chem, 2024).
